Values quoted from earlier work as cited in patent publication US20110190220A1, “Use of Defensin Alpha 1 and/or Defensin Alpha 4, as a Marker for Predicting Treatment Response and/or a Relapse in a Patient Suffering form Chronic Myeloid Leukemia” (priority 2008, published 2011).
Where a name gives a salt, the structure may show the parent alone.

System: CML patients

SMILES: Cc1ccc(NC(=O)c2ccc(CN3CCN(C)CC3)cc2)cc1Nc1nccc(-c2cccnc2)n1 [Imatinib, Imatinib mesylate]
- complete or nearly complete cytogenetic remission, share of patients (CML patients treated in chronic phase): up to 80%
- CML patients who are or become resistant to treatment (CML patients treated with imatinib): about 20%
